# Test results from ChEMBL document CHEMBL1201862, “PubChem BioAssay data set” (2004).
# Active and inactive are the calls of the source.
# Tests used:
# [1] = molecular target: T1, Adenosylmethionine-8-amino-7-oxononanoate aminotransferase (Mycobacterium tuberculosis, UniProt P9WQ81); assay: Mycobacterium tuberculosis BioA enzyme inhibitor Measured in Biochemical System Using Plate Reader - 2163-02_Inhibitor_Dose_CherryPick_Activity.; type: functional, Mycobacterium tuberculosis UT205
# T1 sequence (P9WQ81 whole entry): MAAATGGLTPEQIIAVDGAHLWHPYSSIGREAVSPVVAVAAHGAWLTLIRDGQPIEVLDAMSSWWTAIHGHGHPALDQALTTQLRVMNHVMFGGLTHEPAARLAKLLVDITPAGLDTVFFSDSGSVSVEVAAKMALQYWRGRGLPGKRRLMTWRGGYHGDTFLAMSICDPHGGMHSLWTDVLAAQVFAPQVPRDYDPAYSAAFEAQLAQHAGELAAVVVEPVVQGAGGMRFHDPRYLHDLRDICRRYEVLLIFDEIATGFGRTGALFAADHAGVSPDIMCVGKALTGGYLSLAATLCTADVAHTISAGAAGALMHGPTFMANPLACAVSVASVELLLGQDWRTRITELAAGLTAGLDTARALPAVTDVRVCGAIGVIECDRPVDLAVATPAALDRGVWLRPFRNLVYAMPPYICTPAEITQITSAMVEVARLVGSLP
# [2] = cells; type: functional, cell-based
# [3] = cells; type: functional, cell-based; remark: listed apart in the source
# [4] = molecular target: T2, Oxysterols receptor LXR-beta (Homo sapiens, UniProt P55055); type: functional, cell-based;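 also: Cell-based luminescence dose-response assay of agonist activity at LXR, run as a confirmatory counterscreen to a daf-12 agonist screen; HEK293 cells with Gal4-LXR fusion and GAL4-driven luciferase reporter; agonist potency from rising luciferase signal of a Gal4-LXR reporter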
# T2 sequence (P55055 whole entry): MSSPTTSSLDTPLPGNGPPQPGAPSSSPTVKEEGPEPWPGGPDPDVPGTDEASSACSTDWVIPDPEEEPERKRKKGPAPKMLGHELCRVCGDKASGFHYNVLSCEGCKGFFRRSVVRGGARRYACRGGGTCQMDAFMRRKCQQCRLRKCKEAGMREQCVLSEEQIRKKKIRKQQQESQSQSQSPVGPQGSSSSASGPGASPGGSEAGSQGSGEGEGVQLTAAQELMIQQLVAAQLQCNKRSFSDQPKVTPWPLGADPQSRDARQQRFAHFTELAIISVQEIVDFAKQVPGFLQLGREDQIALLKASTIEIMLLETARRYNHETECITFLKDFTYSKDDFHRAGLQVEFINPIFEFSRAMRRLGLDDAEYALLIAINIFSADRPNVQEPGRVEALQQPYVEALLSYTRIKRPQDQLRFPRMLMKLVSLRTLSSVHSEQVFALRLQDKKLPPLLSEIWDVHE
# [5] = cells
# [6] = Trypanosoma cruzi growth suppression in host cells – NIH3T3 host cells, beta-gal luminescence, confirmation (AID 2044); type: functional, cell-based;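 also: intracellular parasites grown in NIH/3T3 mouse fibroblasts as host cells; luminescent beta-galactosidase reporter signal from transgenic T. cruzi replicating inside host cells; inhibitors lower the luminescence signal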
# [7] = NIH3T3 cell viability loss – ATP luminescence, mouse fibroblasts, counter-screen, dose response (AID 2010); type: functional, cell-based;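 also: cells exposed to compound for about 90 hours before reading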
# [8] = microbe, parasite or virus in culture; type: functional; settings: Mycobacterium tuberculosis
# [9] = HPDE-C7 pancreatic duct cell viability loss – fluorescence, HTS (AID 430); type: functional, cell-based; settings: Homo sapiens
# [10] = molecular target: Induced myeloid leukemia cell differentiation protein Mcl-1 (Homo sapiens, UniProt Q07820); type: functional
# [11] = viability loss of HPDE-C7K cells – cell-based, fluorescence, HTS, primary screen (AID 431); type: functional; settings: Homo sapiens
# Induced myeloid leukemia cell differentiation protein Mcl-1, sequence (Q07820 whole entry): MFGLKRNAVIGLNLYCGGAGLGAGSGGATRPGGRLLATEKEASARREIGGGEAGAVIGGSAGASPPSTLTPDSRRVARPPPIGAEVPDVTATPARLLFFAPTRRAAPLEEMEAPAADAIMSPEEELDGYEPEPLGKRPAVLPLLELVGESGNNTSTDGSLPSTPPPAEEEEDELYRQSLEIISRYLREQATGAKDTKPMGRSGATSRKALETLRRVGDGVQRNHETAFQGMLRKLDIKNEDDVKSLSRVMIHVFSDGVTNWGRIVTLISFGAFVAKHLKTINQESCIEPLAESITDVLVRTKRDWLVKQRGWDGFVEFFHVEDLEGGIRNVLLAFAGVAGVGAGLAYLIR
compound,measurement,setting,value
Cc1ccc(-c2nnc(N3CCN(C(=O)CSc4nc[nH]n4)CC3)c3ccccc23)cc1,AC50,[1],1.07 µM (active)
COc1ccc(C2CC(c3cccs3)=NN2C(=O)CSc2nc(=O)n3cc(C)ccc3n2)cc1 (configuration not stated),EC50,[2],> 350 µM (not active)
same,EC50,[3],> 350 µM (not active)
Cc1ccc(Cc2c(C)nc3nc(SCC(=O)NCCCN4CCCCC4)nn3c2C)cc1,AC50,[1],11.1 µM (active)
N=C(NOC(=O)c1cccs1)c1ccc(Cl)cc1,EC50,[2],7.41 µM (active)
same,EC50,[3],> 350 µM (not active)
CC(Oc1ccc2ccc(=O)oc2c1)C(=O)N1CCOCC1 (configuration not stated),AC50,[1],6.85 µM (active)
COc1ccc2oc(C(=O)Nc3ccccn3)c(C)c2c1,EC50,[4],> 67.5 µM (inactive)
same,EC50,[5],> 67.5 µM (inactive)
Cc1cccc(-c2cc3c(N=O)c4ccccc4c-3[nH]n2)c1,EC50,[4],> 67.5 µM (inactive)
same,EC50,[5],> 67.5 µM (inactive)
same,EC50,[6],4.86 µM (active)
same,EC50,[7],> 60 µM (not active)
Oc1ccccc1NCC(O)Cn1ccc2ccccc21 (configuration not stated),CC50,[8],> 40 µM (active)
same,EC50,[9],12.8 µM (active)
same,IC50,[10],4.49 µM (active)
same,EC50,[11],13.2 µM (active)
